Legend:
[1] = system: layer V pyramidal neurons; assay: Responses of layer V pyramidal neurons to light flashes (ChR2 stimulation) in prefrontal slices; assay type: cell-based, Thy1::ChR2 transgenic mice; settings: for spiking in response to ChR2 stimulation: p<0.001 vs control; for spikes at short interspike intervals: quinpirole, or haloperidol or sulpiride, FIG. 2E, n=4 cells per group
Procedure: We used prefrontal slices from Thy1::ChR2 mice to study network activity evoked by light. Brain slices isolated from Thy1::ChR2 transgenic mice underwent in vitro light stimulation and a layer V pyramidal neuron was monitored by electrophysiological recordings for cellular responses to trains of light flashes (470 nm, 1 msec) in the absence of a D2 agonist (control) or presence a D2 agonist (20 μM quinpirole). The brain slice was subsequently washed to remove the quinpirole and treated with either 0.2-2 μM haloperidol or 5 μM sulpiride, both of which are known D2 antagonists. The spike rate of the layer V pyramidal neurons and the amount of information transmitted by the spike rate was quantified as well as the number of spikes as a function of interspike interval.

[2] = system: layer V pyramidal neurons; assay: as above; assay type: cell-based, Thy1::ChR2 transgenic mice
[3] = system: layer V pyramidal neurons; assay: Responses of layer V pyramidal neurons to hyperpolarizing/depolarizing current pulses (activity-dependent depolarization); assay type: cell-based, Thy1::ChR2 transgenic mice; settings: for effect on PCP-elicited activity-dependent depolarization and afterdepolarization: n=2 cells; for cells in which the activity-dependent depolarization and related phenomena were elicited: 5 μM (−) Quinpirole or 10 μM quinpirole, pooled
Procedure: Electrophysiological recordings monitored the cellular responses of the layer V pyramidal neurons to in vitro light stimulation when under the pharmacological conditions or treatments.
Brain slices isolated from Thy1::ChR2 transgenic mice underwent direct current stimulation and a layer V pyramidal neuron was monitored by electrophysiological recordings for cellular responses to depolarizing current pulses in the absence or presence of 5 μM PCP.

[4] = system: layer V pyramidal neurons; assay: Whole-cell voltage-clamp of ion channel currents mediating the activity-dependent depolarization; assay type: cell-based, mice
Excerpt: We next sought to identify possible ion channel currents mediating the activity-dependent depolarization, in whole-cell voltage-clamp.

mice = assay: Social exploration / social behavior in mice; assay type: in vivo; settings: PCP 5 mg/kg alone; FIG. 4C bottom
[5] = haloperidol (0.2-2 μM) or sulpiride (5 μM), pooled group
[6] = haloperidol (0.2-2 μM) or sulpiride (5 μM), pooled group, p<0.01 vs control
[7] = cells with prominent sag and rebound afterdepolarization

SMILES: CCN1CCCC1CNC(=O)c1cc(S(N)(=O)=O)ccc1OC (stereo not shown) [sulpiride]
- spiking in response to ChR2 stimulation [1, 5]: least
- amount of information the spike rate transmitted about the rate of light flashes [1, 6]: lowest
- action potential width ([1]; quinpirole + sulpiride 5 μM, FIG. 2F): widened action potentials
- spikes at short interspike intervals [1]: loss of spikes at short interspike intervals
- reversal of quinpirole-elicited prolonged depolarization ([2]; 5 μM sulpiride, simultaneous application with quinpirole): 2/2
- block of the quinpirole activity-dependent depolarization ([3]; sulpiride 5 μM): 2/2
- effect on PCP-elicited activity-dependent depolarization and afterdepolarization ([3]; sulpiride 5 μM, PCP 5 μM): not blocked
- effect on PCP-elicited activity-dependent depolarization and afterdepolarization ([3]; sulpiride 5 μM, PCP 5 μM, listed as sulphide): not reversed
- effect on quinpirole-elicited currents at −30 mV and −60 mV ([4]; sulpiride 5 μM): blocked

SMILES: O=C(CCCN1CCC(O)(c2ccc(Cl)cc2)CC1)c1ccc(F)cc1 [haloperidol]
- quinpirole-elicited prolonged depolarization after washing out quinpirole ([1]; haloperidol 1 μM, FIG. 2B): abolished
- spiking in response to ChR2 stimulation [1, 5]: least
- amount of information the spike rate transmitted about the rate of light flashes [1, 6]: lowest
- spikes at short interspike intervals [1]: loss of spikes at short interspike intervals
- reversal of quinpirole-elicited prolonged depolarization ([2]; 0.2-10 μM haloperidol, washout of quinpirole and simultaneous application): 9/9
- effect on activity-dependent depolarization present in control conditions (before quinpirole) ([3]; haloperidol 0.2-2 μM, n=3): convert bistability into a more modest afterdepolarization, or block the activity dependent depolarization altogether
- block of the quinpirole activity-dependent depolarization ([3]; haloperidol 0.2-10 μM): 9/9

SMILES: CCCN1CCC[C@@H]2Cc3n[nH]cc3C[C@H]21 [(−) Quinpirole]
- cells in which the activity-dependent depolarization and related phenomena were elicited [3, 7]: 8/10

SMILES: c1ccc(C2(N3CCCCC3)CCCCC2)cc1 [PCP, phencyclidine]
- social exploration (mice): impairs social exploration
- spiking at short interspike intervals during trains of light pulses ([2]; PCP, Thy1::ChR2 cortical slices): suppressed spiking at short interspike intervals
- response to depolarizing current pulses ([3]; PCP 5 μM, FIG. 4A): exhibits an afterdepolarization and persistent firing
- cells with activity-dependent depolarization and afterdepolarization outlasting direct stimulation ([3]; PCP 5 μM, all layer V pyramidal neurons recorded): 6/12
- cells with activity-dependent depolarization ([3]; PCP 5 μM, neurons with prominent sag and rebound afterdepolarization): 6/9
- cells with activity-dependent depolarization ([3]; PCP 5 μM, neurons without prominent sag and rebound afterdepolarization): 0/3
- wide action potentials (possible dendritic Ca2+ spikes) ([3]; PCP, FIG. 4A): in some cases found to elicit wide action potentials

SMILES: CCCN1CCC[C@@H]2Cc3n[nH]cc3C[C@H]21 [quinpirole]
- layer V pyramidal neurons with prolonged depolarization outlasting direct stimulation after high-frequency spiking ([1]; quinpirole 20 μM, all layer V pyramidal neurons recorded): 16/26
- amount of information the spike rate transmitted about the rate of light flashes ([1]; quinpirole 20 μM, compared with control, p<0.05): intermediate
- change in responses to trains of light flashes ([1]; quinpirole 20 μM, light flashes 470 nm, 1 msec): marked change in the responses
- spike afterhyperpolarization (AHP) ([1]; quinpirole 20 μM, single 1 msec light flash, FIG. 2F): enhanced the spike afterhyperpolarization
- spikes at short interspike intervals [1]: loss of spikes at short interspike intervals
- spike rate in response to ChR2 stimulation ([1]; quinpirole, p<0.01 vs control): lower spike rates
- cells in which the activity-dependent depolarization and related phenomena were elicited [3, 7]: 8/10
- cells exhibiting the activity-dependent depolarization ([3]; 20 μM quinpirole, cells with prominent sag and rebound afterdepolarization): 16/17
- cells with bistability having peaks in power spectra between 20 and 40 Hz ([3]; quinpirole, FIG. 3F): 4/6
- cells exhibiting the activity-dependent depolarization ([3]; quinpirole, cells without prominent sag and rebound afterdepolarization): 0/9
- cells exhibiting the activity-dependent depolarization ([3]; quinpirole, neurons strongly expressing ChR2): 14/18
- current at −30 mV after a series of 1 msec steps to 0 mV ([4]; quinpirole 20 μM): elicited a slowly activating depolarizing current
- tail current at −60 mV after a series of 1 msec steps to 0 mV ([4]; quinpirole 20 μM): increased a rapidly inactivating tail current
